From a compilation of properties of binary mixtures (doi:10.7498/aps.66.196101)

Assay: xn = mol fraction of the nth substance listed
Settings: 100 kPa

An electrical conductivity (298.15 K, x1 = 0.8285) of 0.0076 S/m, an electrical conductivity (298.15 K, x1 = 0.843) of 0.0071 S/m and a viscosity (298.15 K, x1 = 0.852) of 5107 mPa·s were found for `CCCC[n+]1ccn(C)c1.N[C@@H](CO)C(=O)[O-]` + O in this work. It also gave an electrical conductivity (298.15 K, x1 = 0.8591) of 0.0068 S/m, a viscosity (298.15 K, x1 = 0.8736) of 5135 mPa·s and an electrical conductivity (298.15 K, x1 = 0.8757) of 0.0065 S/m. The viscosity (298.15 K, x1 = 0.9388) was 5270 mPa·s, the electrical conductivity (303.15 K, x1 = 0.8285) was 0.0118 S/m and the electrical conductivity (303.15 K, x1 = 0.843) was 0.0111 S/m. It also gave a viscosity (303.15 K, x1 = 0.852) of 2975 mPa·s, a viscosity (303.15 K, x1 = 0.8736) of 3000 mPa·s and an electrical conductivity (303.15 K, x1 = 0.8918) of 0.0097 S/m. For the same molecule, the viscosity (303.15 K, x1 = 0.9165) was 3073 mPa·s, the viscosity (303.15 K, x1 = 0.9388) was 3147 mPa·s and the electrical conductivity (308.15 K, x1 = 0.8285) was 0.0196 S/m. It also gave an electrical conductivity (308.15 K, x1 = 0.843) of 0.0183 S/m, a viscosity (308.15 K, x1 = 0.852) of 1828 mPa·s and an electrical conductivity (308.15 K, x1 = 0.8591) of 0.017 S/m. For the same molecule, the viscosity (308.15 K, x1 = 0.8736) was 1843 mPa·s, the electrical conductivity (308.15 K, x1 = 0.8757) was 0.016 S/m and the electrical conductivity (308.15 K, x1 = 0.8918) was 0.0151 S/m. The viscosity (308.15 K, x1 = 0.894) was 1868 mPa·s, the viscosity (308.15 K, x1 = 0.9165) was 1897 mPa·s and the viscosity (308.15 K, x1 = 0.9388) was 1952 mPa·s. The electrical conductivity (313.15 K, x1 = 0.8285) was 0.0293 S/m, the electrical conductivity (313.15 K, x1 = 0.843) was 0.028 S/m and the viscosity (313.15 K, x1 = 0.852) was 1135 mPa·s. It also gave an electrical conductivity (313.15 K, x1 = 0.8591) of 0.0261 S/m, a viscosity (313.15 K, x1 = 0.8736) of 1159 mPa·s and an electrical conductivity (313.15 K, x1 = 0.8757) of 0.0247 S/m. It also gave an electrical conductivity (313.15 K, x1 = 0.8918) of 0.0237 S/m, a viscosity (313.15 K, x1 = 0.9165) of 1231 mPa·s and an electrical conductivity (318.15 K, x1 = 0.8285) of 0.0423 S/m. It also gave an electrical conductivity (318.15 K, x1 = 0.843) of 0.0402 S/m, a viscosity (318.15 K, x1 = 0.852) of 753 mPa·s and an electrical conductivity (318.15 K, x1 = 0.8591) of 0.0375 S/m. For the same molecule, the viscosity (318.15 K, x1 = 0.8736) was 768 mPa·s, the electrical conductivity (318.15 K, x1 = 0.8757) was 0.0357 S/m and the electrical conductivity (318.15 K, x1 = 0.8918) was 0.0341 S/m. For the same molecule, the viscosity (318.15 K, x1 = 0.894) was 790 mPa·s, the viscosity (318.15 K, x1 = 0.9165) was 822 mPa·s and the viscosity (318.15 K, x1 = 0.9388) was 870 mPa·s. The electrical conductivity (323.15 K, x1 = 0.8285) was 0.0597 S/m, the electrical conductivity (323.15 K, x1 = 0.843) was 0.0565 S/m and the viscosity (323.15 K, x1 = 0.852) was 523 mPa·s. For the same molecule, the electrical conductivity (323.15 K, x1 = 0.8591) was 0.0534 S/m, the viscosity (323.15 K, x1 = 0.8736) was 532 mPa·s and the electrical conductivity (323.15 K, x1 = 0.8757) was 0.0511 S/m. The electrical conductivity (323.15 K, x1 = 0.8918) was 0.0488 S/m, the viscosity (323.15 K, x1 = 0.894) was 544 mPa·s and the viscosity (323.15 K, x1 = 0.9165) was 566 mPa·s. The viscosity (323.15 K, x1 = 0.9388) was 597 mPa·s, the electrical conductivity (328.15 K, x1 = 0.8285) was 0.0817 S/m and the viscosity (328.15 K, x1 = 0.8736) was 352 mPa·s. For the same molecule, the electrical conductivity (328.15 K, x1 = 0.8757) was 0.0703 S/m, the electrical conductivity (328.15 K, x1 = 0.8918) was 0.0679 S/m and the viscosity (328.15 K, x1 = 0.9165) was 388 mPa·s. It also gave an electrical conductivity (333.15 K, x1 = 0.843) of 0.106 S/m, a viscosity (333.15 K, x1 = 0.852) of 247 mPa·s and a viscosity (333.15 K, x1 = 0.8736) of 255 mPa·s. For the same molecule, the electrical conductivity (333.15 K, x1 = 0.8757) was 0.0958 S/m, the electrical conductivity (333.15 K, x1 = 0.8918) was 0.0921 S/m and the viscosity (333.15 K, x1 = 0.894) was 266 mPa·s. It also gave a viscosity (333.15 K, x1 = 0.9165) of 279 mPa·s, a viscosity (333.15 K, x1 = 0.9388) of 304 mPa·s and an electrical conductivity (338.15 K, x1 = 0.8285) of 0.146 S/m. The electrical conductivity (338.15 K, x1 = 0.843) was 0.14 S/m, the viscosity (338.15 K, x1 = 0.8736) was 187.4 mPa·s and the electrical conductivity (338.15 K, x1 = 0.8757) was 0.127 S/m. For the same molecule, the electrical conductivity (338.15 K, x1 = 0.8918) was 0.122 S/m, the viscosity (338.15 K, x1 = 0.894) was 197 mPa·s and the viscosity (338.15 K, x1 = 0.9165) was 212 mPa·s. The viscosity (338.15 K, x1 = 0.9388) was 229 mPa·s.
